Target: Sphingosine 1-phosphate receptor 1 (Homo sapiens, UniProt P21453)
Assay: BCA Protein Assay: Inhibitory activity evaluation was performed by multi-screen (registered trademark) HTS 96-well plate (Millipore) using the cell membrane fraction stably expressing S1P1 obtained by the above operation. 25 μL of assay solution (50 mM Tris, 100 mM sodium chloride, 5 mM magnesium chloride, 1 mM EDTA, 1 mM DTT (dithiothreitol), 10 μM GDP (guanosine diphosphate) and 0.5% BSA (bovine serum albumin), pH 7.4), 25 μL of test compounds solution diluted by assay solution and 25 μL of the membrane fraction (0.2 μg protein/μL) were added to each well, and the mixture was gently shaken at room temperature: for 30 minutes. Then, 25 μL of 35S-GTP, and 25 μL of 50 nM S1P1 receptor selective agonist (1-[4-(4-phenyl-5-trifluoromethylthiophen-2-ylmethoxy)benzyl]azetidine-3-carboxylic acid, ¿J. Med. Chem.¿, 2004, vol. 47, pp. 6662-6665, compound 18) were added to each well, respectively, and it was reacted at room temperature for 60 minutes. After the reaction, a reaction solution of each well was suction-filtered. After suction filtration, ice-colded wash solution (50 mM Tris, 100 mM sodium chloride, […] and 1 mM EDTA, pH 7.4) was added to each well, and moreover filters were washed by suction filtration. This wash procedure was performed three times. A bottom of the plate containing the filters was dried at 60° C. […]

Sphingosine 1-phosphate receptor 1, sequence (P21453 whole entry): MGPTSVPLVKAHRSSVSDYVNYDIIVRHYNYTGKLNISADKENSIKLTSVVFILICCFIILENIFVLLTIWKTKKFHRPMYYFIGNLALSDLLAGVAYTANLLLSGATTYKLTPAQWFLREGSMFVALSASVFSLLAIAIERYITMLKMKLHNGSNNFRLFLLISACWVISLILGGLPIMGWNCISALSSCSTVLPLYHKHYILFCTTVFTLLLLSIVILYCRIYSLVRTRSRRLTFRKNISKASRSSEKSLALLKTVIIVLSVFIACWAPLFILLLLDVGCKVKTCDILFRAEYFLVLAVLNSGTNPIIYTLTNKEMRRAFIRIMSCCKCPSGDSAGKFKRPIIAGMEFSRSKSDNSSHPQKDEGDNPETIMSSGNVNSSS

- IC50: 11.2 nM
Structure (SMILES): CCN(c1ccc(Cl)c(C)c1)C(CO)c1cccc(CN2CC(C(=O)O)C2)c1 (stereo unspecified)

From ChEMBL document CHEMBL5725543, “Aniline derivative, pharmaceutical composition containing same, and use thereof” (2017)
